Assay results taken from patent US20090017139A1, “Iodine therapy dosing for treating medical conditions” (priority 2007, published 2009).
Where two headings read alike, the source gives them in different places.

Legend:
estrogen receptor = assay: Example 5: immunocytochemical detection of estrogen receptor in vaginal smears after 2 months of daily I2; type: in vivo, Sprague-Dawley rats; conditions: for Immunocytochemical Detection of Estrogen Receptor, Scores (mean ± SD), End: after 2 months daily dosing; for Immunocytochemical Detection of Estrogen Receptor, Scores (mean ± SD), End / Immunocytochemical Detection of Estrogen Receptor, Scores (mean ± SD), Baseline: scale +1 to +3, dissolved IoGen tablets; for Immunocytochemical Detection of Estrogen Receptor, Scores (mean ± SD), Baseline: before dosing
From the text: (§1) A total of 24 nulliparous and nonpregnant female Sprague-Dawley rats were received from Charles River Laboratories, Kingston, N.Y. The animals were 10 weeks of age and were examined for signs of disease or injury upon receipt. The animals were housed in stainless steel cages and fed LabDiet™ Certified Rodent Chow 5002 (PMI Feeds, Inc., a subsidiary of Purina Mills, Inc.) ad libitum and were provided fresh filtered tap water ad libitum. Environmental controls were set to maintain a temperature of 18 to 26° C. and a relative humidity of 30 to 70%. A 12-hour light/dark cycle was employed and the room underwent a minimum of ten fresh air changes/hour.
(§2) The animals were allowed to acclimate to laboratory conditions for 2 weeks. No abnormal findings excluding animals from study were noted. The animals were released from conditioning following an examination. Each animal was identified with a unique number that was indicated by ear punch. Cage labels, color-coded by group, identified each cage. The animals were maintained at laboratory conditions for an additional 2 weeks and then randomized into treatment groups by weight.
Tablets of IoGen, a registered trademark of Symbollon Pharmaceuticals Inc. of Framingham Mass. USA were dissolved in distilled water. IoGen tablets are compositions of iodide and iodate in a pharmaceutically acceptable carrier which will form molecular iodine “I2” once in contact with the gastric fluid in the stomach via a diffusion controlled oxidation reduction reaction as taught in U.S. Pat. No. 5,885,592 the disclosure of which is incorporated herein by reference. For this example the IoGen tablets weighted 400 mg and contained the equivalent of 6 mg of I2 in the form of iodide and iodate. The dissolved IoGen tables were used to provide defined daily doses of I2 to rats according to Table 1 below.
After randomization vaginal smears were taken from rats using a cotton swab; the swab was inserted into the vagina and rotated 360° in a clockwise direction, then the swab was smeared onto a glass slide and the smear was fixed in 3.7% formaldehyde with phosphate buffered saline (PBS) for 15 minutes. The slides were washed in PBS for 5 minutes and subsequently immersed in cold methanol and acetone (both at −10° C.) for 3 minutes. After a final rinse in cold PBS for 5 minutes the slides were stored at −20° C. in a solution of PBS-glycerol.
Rats were then dosed daily for the next 2 months according to the schedule in Table 1. […] After 2 months of daily dosing vaginal swabs were taken again and slides were prepared as on day 1 of the dosing regimen.
Immunocytochemical (IC) detection of estrogen receptor (hereafter “ER”) status was accomplished using mouse monoclonal antibody 6F11 from Vector Laboratories (Burlingame, Calif.). A gentle stream of 10 mM citrate buffer (pH 6.0) was passed over each slide for 45 minutes and then a 1/25 dilution of the antibody was incubated with slides at room temperature for 30 minutes. Slides were washed and the Vectastain ABC Kit for Mouse IgG (Vector Laboratories; Burlingame, Calif.) was used to visualize ER. The chromophone 3,3′ diaminobenzidine and peroxidase were used to stain areas of the slides that contained ER. The intensity of staining was scored semi quantitatively on a scale of +1 to +3. Each dosing group contained 6 animals.

[1] = system: patient with follicular cyst of the ovary; assay: Example 4: I2 therapy of a patient with ovarian follicular cysts; type: in vivo, human
Procedure: The post surgical diagnosis was ruptured follicular cyst of the right ovary. After the surgical procedure the patient continued to experience lower right quadrant abdominal pain. […] The patient was started on I2 therapy at a dose of 6.0 mg/d. The patient was seen again 3 months later (December 3 to March 16). After three months of I2 therapy the patient was free of pain which their […] regarded as unique.
The patient subsequently stopped I2 therapy and approximately 3 years later symptoms of abdominal and breast pain were present. The patient was started again on daily I2 therapy at a dose of 6.0 mg/d. An ultrasound was performed and small follicular cysts in each ovary was noted. […] The patient was continued on daily iodine therapy at a concentration of 3.0 mg/d.

[2] = in drinking water, 100 days; cited from earlier work
[3] = cited from earlier work
women with mastalgia = conditions: cited from earlier work; for patients reporting headaches: 6 month study
[4] = reacts with water at neutral pH; cited from earlier work
[5] = Example 5: daily feed consumption and weight during 2 months of daily dosing; type: in vivo, Sprague-Dawley rats; conditions: 2 months daily dosing, .06 to 2 mg I2/kg/day
From the text: as §1, §2
Tablets of IoGen, a registered trademark of Symbollon Pharmaceuticals Inc. of Framingham Mass. USA were dissolved in distilled water. […]

## II [I2, molecular iodine]
Estrogen receptor; Group 2, .06 mg I2/kg/day
  Immunocytochemical Detection of Estrogen Receptor, Scores (mean ± SD), End: 1.167 ± 0.752
  Immunocytochemical Detection of Estrogen Receptor, Scores (mean ± SD), Baseline: 2.000 ± 0.632
Estrogen receptor; Group 3, 0.2 mg I2/kg/day
  Immunocytochemical Detection of Estrogen Receptor, Scores (mean ± SD), End: 1.167 ± 0.408
  Immunocytochemical Detection of Estrogen Receptor, Scores (mean ± SD), Baseline: 2.167 ± 0.753
Estrogen receptor; Group 4, 2 mg I2/kg/day
  Immunocytochemical Detection of Estrogen Receptor, Scores (mean ± SD), End: 0.833 ± 0.408
  Immunocytochemical Detection of Estrogen Receptor, Scores (mean ± SD), Baseline: 2.333 ± 0.516
Estrogen receptor; trend across the 3 dosing groups p<0.001
  effect of daily treatment on ER in the endometrium: down regulation of ER
Estrogen receptor; unpaired t-test, p=0.015
  change from baseline to end in ER score, placebo versus all rats that received I2: statistically significant difference
[1]; 3.0 mg/d, seen 9 and 18 months later
  symptoms on continued therapy: remained asymptomatic
[1]; 6.0 mg/d, after three months of therapy
  abdominal pain: free of pain
[1]; 6.0 mg/d, approximately 4 months later
  ultrasound of the ovaries: ovaries appeared normal
[1]; 6.0 mg/d, within a month of reinitiating therapy
  symptoms of pain: no longer present
[2]
  suppressing thyroid uptake of a challenge dose of 125iodide: less effective than iodide
[3]; oral administration
  iodine uptake in thyroid compared to iodide: half as much
[3]; perchlorate 6 mg i.p., 2 hr predosing
  reduction of thyroidal uptake by perchlorate: 40%
Women with mastalgia; 1.5 mg/day group
  patients reporting headaches: 6.3%
Women with mastalgia; 3.0 mg/day group
  patients reporting headaches: 26%
Women with mastalgia; 6.0 mg/day group
  patients reporting headaches: 12%
Women with mastalgia; any treatment group
  change in five thyroid function tests (T3, T4, T uptake, TSH, FT3): No statistically significant change
[4]
  maximum period of storage in an aqueous environment: 2 to 8 h
[5]
  daily feed consumption or weight, placebo versus treated groups: no statistically significant differences
